Test results as given in patent publication US20200030259A1, “Antiestrogens and/or Aromatase Inhibitors for Use in Treating Obesity and Related Symptoms” (Repros Therapeutics Inc., priority 2016, published 2020).

Key:
[1] = system: obese men with acquired hypogonadotropic hypogonadism; assay: Phase 2 clinical trial: morning testosterone; format: in vivo, human; conditions: p<0.0001, FIG. 1B
Description: 50 adult male subjects are enrolled in the study with an average age of 43.3 (stdev 9.2), average BMI of 36.8 (stdev 3.2), average waist size of 46.9″ (stdev 4.1) and average body fat percentage of 38.1 (stdev 5.2). Average baseline testosterone levels in the subjects was 221.9 ng/dl (stdev 52.7), average estradiol level in the subjects was 48.1 μg/ml (stdev 14.8) and the average T:E ratio was 4.95 (stdev 1.7; normal range of T:E is 20-25). […] The subjects were provided a low calorie commercial diet for 6 months, gym membership for 15 month and access to a personal trainer for 6 months. Subjects were randomized to receive treatment with 12.5 mg enclomiphene/day, 25 mg enclomiphene/day or placebo via oral capsule over a three month period.

[2] = system: obese men with acquired hypogonadotropic hypogonadism; assay: Phase 2 clinical trial: lean mass by dual energy X-ray Absorptiometry (DXA); format: in vivo, human; conditions: placebo arm lost lean mass, FIG. 2A
Description: (§1) FIGS. 2A and 2B illustrate lean mass (as a percentage of total mass in kilograms, measured by dual energy X-ray Absorptiometry (DXA)) and total testosterone levels at baseline and at the 3 month and 6 month time points in the subjects described at FIGS. 1A and 1B.
(§2) A randomized double blind placebo-controlled Phase 2 clinical study (duration=6 months) was initiated to study the effects of trans-clomiphene on testosterone, metabolic function, weight, body composition, measures of strength and quality of life assessments (made throughout the study) in obese men with acquired hypogonadotropic hypogonadism.
(§3) 50 adult male subjects are enrolled in the study with an average age of 43.3 (stdev 9.2), average BMI of 36.8 (stdev 3.2), average waist size of 46.9″ (stdev 4.1) and average body fat percentage of 38.1 (stdev 5.2). Average baseline testosterone levels in the subjects was 221.9 ng/dl (stdev 52.7), average estradiol level in the subjects was […] (stdev 14.8) and the average T:E ratio was 4.95 (stdev 1.7; normal range of T:E is 20-25). The top four reported baseline symptoms (by % of enrollees) were (i) fatigue/lack of energy (96%) (ii) depression, irritability, lack of focus (74%) (iii) poor libido (60%) and (iv) muscle weakness (48%). The subjects were provided a low calorie commercial diet for 6 months, gym membership for […] and access to a personal trainer for 6 months. […]

[3] = system: obese men with acquired hypogonadotropic hypogonadism; assay: Phase 2 clinical trial: free and total (LCMS) testosterone; format: in vivo, human; conditions: enclomiphene arms; FIG. 2B
Description: as §1, §2, §3

[4] = system: obese men with acquired hypogonadotropic hypogonadism; assay: Phase 2 clinical trial: DISF-SR, IWQOL and SF-36 total scores; format: in vivo, human; conditions: enclomiphene arms; 3 and 6 months; n=15 per group; FIG. 3
Description: FIG. 3 illustrates percent improvement from baseline total score at the 3 month and 6 month time points in subjects described at FIGS. 1A and 1B (n=15 per group) in the DISF-SR (Derogatis Interview for Sexual Functioning), IWQOL (Impact of Weight on Quality of Life questionnaire) and SF-36 (Medical Outcomes Study Short Form).
as §2
50 adult male subjects are enrolled in the study with an average age of 43.3 (stdev 9.2), average BMI of 36.8 (stdev 3.2), average waist size of 46.9″ (stdev 4.1) and average body fat percentage of 38.1 (stdev 5.2). Average baseline testosterone levels in the subjects was 221.9 ng/dl (stdev 52.7), average estradiol level in the subjects was […] (stdev 14.8) and the average T:E ratio was 4.95 (stdev 1.7; normal range of T:E is 20-25). The top four reported baseline symptoms (by % of enrollees) were (i) fatigue/lack of energy (96%) (ii) depression, irritability, lack of focus (74%) (iii) poor libido (60%) and (iv) muscle weakness (48%). The subjects were provided a low calorie commercial diet for 6 months, gym membership for […] and access to a personal trainer for 6 months. Subjects were randomized to receive treatment with 12.5 mg enclomiphene/day, 25 mg enclomiphene/day or placebo via oral capsule over a […] period.

[5] = system: subjects in need of treatment for obesity; assay: Treating obesity with an antiestrogen (Example 2); format: in vivo; conditions: 5 mg to 100 mg daily or every other day for at least three months
Description: Subjects in need of treatment for obesity are administered an amount of an antiestrogen (e.g. trans-clomiphene or a salt or analogue thereof) in an amount effective to increase LH and FSH to therapeutic levels over a treatment period of sufficient duration to achieve the desired result, preferably for a period of at least 3 months during which an effective dose is administered daily or every other day. FSH and LH levels may be assessed prior to initiating treatment and then monitored through the course of treatment to ensure that therapeutic levels of the pituitary hormones are reached. By way of nonlimiting example, a subject with obesity is administered 5 mg to 100 mg trans-clomiphene daily or every other day for a treatment period of at least three months, preferably at least six months.

CCN(CC)CCOc1ccc(/C(=C(/Cl)c2ccccc2)c2ccccc2)cc1 [enclomiphene, trans-clomiphene]
morning testosterone at six months ([1]; 12.5 mg enclomiphene/day oral capsule with weight loss regimen, baseline ~235 ng/dl): ~505 ng/dL | morning testosterone at six months ([1]; 25 mg enclomiphene/day oral capsule with weight loss regimen, baseline ~285 ng/dl): ~605 ng/dL | lean mass (percentage of total mass, DXA) at six months ([2]; 12.5 mg enclomiphene arm): gained lean mass | lean mass (percentage of total mass, DXA) at six months ([2]; 25 mg enclomiphene arm): gained lean mass | free testosterone, baseline to six month time point [3]: increases | total (LCMS) testosterone, baseline to six month time point [3]: increases | percent improvement relative to baseline in DISF-SR total score [4]: statistically significant from baseline | percent improvement relative to baseline in IWQOL total score [4]: statistically significant from baseline | percent improvement relative to baseline in SF-36 total score [4]: statistically significant from baseline | symptoms of obesity during treatment [5]: reduction in one or more symptoms of obesity is observed
